From patent US5037980A, “Phenyl imidazo[1,2-a]pyrimidines” (American Cyanamid Company, priority 1988, dated 1991)

Key:
[1] = tested on: spontaneously hypertensive rats; assay: Mean arterial blood pressure in spontaneously hypertensive rats; type: in vivo, Okamoto strain); conditions: 100 mg/kg by gavage at 0 and 24 hours, measured at 28 hours, 1 rat; average of SHR used 170+1.5 mm of mercury
Protocol: The novel compounds of the present invention were tested for hypotensive activity by the method of P. S. Chan and D. W. Poorwin, Clin. Exptl. Hypertension, 1 (6): 817 (1979). Male, 16-20 week old, spontaneously hypertensive rats (SHR) of the Okamoto strain, from Taconic Farms, Germantown, New York, having an average mean arterial blood pressure of 170+1.5 mm of mercury are used in the test. One male adult SHR weighing about 300 g is dosed by gavage with a test compound, suspended in 2% pre-boiled starch at a concentration of 50 mg/ml, at a dose of 100 mg/kg of body weight or less, with 0.9% sodium chloride loading at a dose of 25 ml/kg of body weight, at zero hours. A second indentical dose of the test compound, without sodium chloride loading in given 24 hours later. At 28 hours after the initial dose the mean arterial blood pressure is measured by the method of Chan and Poorwin vide supra. The results of this test on representative compounds of the present invention appear below in Table IV.

brain-specific receptors = assay: Inhibition of the binding of 3H-benzodiazepine to brain-specific receptors of rats; parameters: species or system rat (Wistar); conditions: 3H-flunitrazepam, rat whole cortex P2-synaptosomal fraction, pH 7.5, 30 minutes, 0° C.; test compound concentration not given
[2] = tested on: clonic seizures caused by pentylenetetrazole in rats; assay: Protection against clonic seizures caused by pentylenetetrazole in rats; type: in vivo, rat; conditions: oral or i.p., pentylenetetrazole 23 mg/kg i.v. at 30 or 60 minutes
Protocol: The anti-anxiety properties of the novel compounds of the present invention have been established in a test which indicates anxiolytic activity by the measure of protection from convulsions resulting from the administration of pentylenetetrazole. Single or graded dose levels of the test compounds were administered orally or intraperitoneally in a 2% starch vehicle containing 0.5% v/v polyethylene glycol and one drop of polysorbate 80 or distilled water and one drop of polysorbate 80 to groups of at least 4 rats. At 30 or 60 minutes, the rats were treated intravenously with pentylenetetrazole at a dose of 23 mg/kg of body weight. This dose is estimated to cause clonic seizures in 99% of unprotected rats. It has been reported [R. T. Hill and D. H. Tedeschi, "Animal Testing and Screening Procedures in Evaluating Psychotropic Drugs" in "An Introduction to Psychopharmacology", Eds. R. R. Rech and K. E. Moore, Raven Press, New York, pp 237-288 (1971)] that there is a high degree of correlation between antagonism of pentylenetetrazole seizures in rats and anti-anxietyeffects in higher warm-blooded animals.

rats = assay: Non-conditioned passive avoidance test in rats; type: in vivo, rat (Wistar); parameters: key: Active: considered active if the number of shocks received by the test group is significantly higher than the control group by the Mann-Whitney U test; conditions: oral or i.p., 30 or 60 minutes before test
Protocol: Another test used to assess anti-anxiety effects is a non-conditioned passive avoidance procedure described by J. R. Vogel, B. Beer and D. E. Clody. "A Simple and Reliable Conflict Procedure for Testing Anti-Anxiety Agents", Psychopharmacologia, 21, 1-7 (1971). A conflict situation is induced in rats by a modification of this method.
Groups of 8 naive, Wistar strain male rats weighing 200-240 g each were deprived of water for 48 hours. The test compounds were administered in single or graded, oral or intraperitoneal doses, suspended in distilled water and one drop of polysorbate 80. Control animals received the vehicle alone. At 30 or 60 minutes each rat was placed in an individual clear plexiglass chamber. Tap water was available ad libitum from a nipple located in a black plexiglass box off the main chamber. A 0.7 milliampere AC shocking current was established between the stainless steel grid floor and the tap. After 20 licks of non-shocked drinking, a 2 second shocking current was administered to the rat. This ratio of 20 licks of non-shocked drinking followed by a 2 second shock was continued for a total of 3 minutes. The number of shocks taken by each rat during the 3 minute interval was recorded and compared to a control group.

COc1ccc(-c2cc(C)nc3nccn23)cc1OC [5-(3,4-Dimethoxyphenyl)-7-methyl-imidazo[1,2-a]pyrimidine]
Mean Arterial Blood Pressure [1]: 148
% Inhibition of 3H-benzodiazepine binding (brain-specific receptors): 46%

COc1cc(-c2ccnc3nccn23)cc(OC)c1OC [5-(3,4,5-Trimethoxyphenyl)imidazo-[1,2-a]pyrimidine]
Mean Arterial Blood Pressure [1]: 147
% of Rats Protected ([2]; dose 25 mg/kg): 75%

Clc1cccc(-c2ccnc3nccn23)c1 [5-(3-Chlorophenyl)imidazo[1,2-a]-pyrimidine]
Mean Arterial Blood Pressure [1]: 146
% Inhibition of 3H-benzodiazepine binding (brain-specific receptors): 37%
Result (non-conditioned passive avoidance) (rats; dose 25.0 mg/kg): Active
% of Rats Protected ([2]; dose 25 mg/kg): 50%

Clc1ccc(-c2ccnc3nccn23)c(Cl)c1 [5-(2,4-Dichlorophenyl)imidazo-[1,2-a]pyrimidine]
Mean Arterial Blood Pressure [1]: 111
% Inhibition of 3H-benzodiazepine binding (brain-specific receptors): 11%

Fc1ccccc1-c1ccnc2nccn12 [5-(2-Fluorophenyl)imidazo[1,2-a]-pyrimidine]
Mean Arterial Blood Pressure [1]: 121
% Inhibition of 3H-benzodiazepine binding (brain-specific receptors): 49%

Cc1cc(-c2ccccc2)n2ccnc2n1 [7-Methyl-5-phenylimidazo[1,2-a]-pyrimidine]
% Inhibition of 3H-benzodiazepine binding (brain-specific receptors): 43%

Cc1cc(-c2ccccc2F)n2ccnc2n1 [5-(2-Fluorophenyl)-7-methyl imidazo[1,2-a]pyrimidine]
% Inhibition of 3H-benzodiazepine binding (brain-specific receptors): 13%

Cc1cc(-c2cccc(C(F)(F)F)c2)n2ccnc2n1 [7-Methyl-5-[3-(trifluoromethyl)phenyl]imidazo[1,2-a]pyrimidine]
Mean Arterial Blood Pressure [1]: 127
% Inhibition of 3H-benzodiazepine binding (brain-specific receptors): 42%

FC(F)(F)c1cccc(-c2ccnc3nccn23)c1 [5-(α,α,α-Trifluoro-m-tolyl)imidazo[1,2-a]pyrimidine]
Mean Arterial Blood Pressure [1]: 126
% Inhibition of 3H-benzodiazepine binding (brain-specific receptors): 46%
Result (non-conditioned passive avoidance) (rats; dose 25.0 mg/kg): Active
% of Rats Protected ([2]; dose 50 mg/kg): 100%

Cc1cc(-c2ccc(Cl)c(Cl)c2)n2ccnc2n1 [5-(3,4-Dichlorophenyl)-7-methyl-imidazo-[1,2-a]pyrimidine]
Mean Arterial Blood Pressure [1]: 119
% Inhibition of 3H-benzodiazepine binding (brain-specific receptors): 22%

COc1cc(-c2cc(C)nc3nccn23)cc(OC)c1OC [7-Methyl-5-(3,4,5-trimethoxy-phenyl)imidazo[1,2-a]pyrimidine]
% Inhibition of 3H-benzodiazepine binding (brain-specific receptors): 10%
Result (non-conditioned passive avoidance) (rats; dose 35.0 mg/kg): Active

Brc1ccc(-c2ccnc3nccn23)cc1 [5-(4-Bromophenyl)imidazo[1,2-a]-pyrimidine]
Mean Arterial Blood Pressure [1]: 97
